In one data set the test system is E. coli ATCC 25922. It counts as cell-based, Escherichia coli. The method, then: (§1) The minimum inhibitory concentration (MIC) was determined using a broth microdilution assay. Specifically, […] of Mueller Hinton broth and 90 μL of peptide (initial concentration 444 μg/mL) were added to a 96-well plate, with serial dilutions (200, 100, 50, 25, 12.5, and […] μg/mL). Then, 10 μL (5 × 10^5 CFU/mL) of inoculum was added to each well, and the final volume in each well was 100 μL. They were incubated for 24 h at 37 °C, and absorbance at 620 nm was measured using the ELISA reader. To determine the minimum bactericidal concentration (MBC), an aliquot was taken from each well and placed on a Mueller Hinton Agar plate. After 24 h of incubation at 37 °C, the MBC was determined. Each of these tests was performed in duplicate.

The test system of a further data set is S. aureus ATCC 25923. It counts as cell-based, Staphylococcus aureus. Particulars: for MBC S. aureus 25923: ATCC 25923, 24 h; for MIC S. aureus 25923: broth microdilution, Mueller Hinton broth, 24 h at 37 °C, absorbance 620 nm, in duplicate, strain sensitive to vancomycin. The method, then: as §1
Background: Broth dilution looks for growth in wells or tubes with falling amounts of substance.

For another data set, the system named is erythrocytes. It counts as cell-based. The method, then: First, 5.0 mL of heparinized peripheral blood was centrifuged at 1000 rpm for 7 min. The erythrocyte fraction was suspended in […] saline solution (SS) and washed twice by centrifugation at 1000 rpm for 7 min. The erythrocytes (2% hematocrit) were incubated with peptide (ranging from 6.2 to 200 µg/mL) for 2 h at 37 °C. SS was used as a negative control, while distilled water was used as a positive control. The mixtures were centrifuged, the supernatants were collected, and the absorbance was determined to be 540 nm.

Another data set relates to HeLa cell line. Particulars: cited from earlier work. The method, then:
(§2) Finally, the cytotoxic effect of the conjugates over fibroblasts, MCF-7, and HeLa cell lines was evaluated (Figure 7).

The next data set concerns MCF-7 cell line. Particulars: cited from earlier work. How it is done:
as §2

For data set [1], the system named is C. albicans 256 HUSI-PUJ (R). Further details: method as in PMID 36358216. Particulars: resistant to fluconazole; cited from earlier work.
The subject of another data set is C. albicans SC5314 (S). Also on record: method as in PMID 36358216. The following applies: sensitive to fluconazole; cited from earlier work.

Data on five molecules can be found in article PMC10135297, “Peptide-Resorcinarene Conjugates Obtained via Click Chemistry: Synthesis and Antimicrobial Activity” (Antibiotics, 2023).

Converted amounts (≈) assume the structure as drawn. Like-named read-outs stand apart in the source and are kept apart here. Peptide text beside a SMILES is read from it.

In the data set on E. coli ATCC 25922 (ATCC 25922, 24 h), `N=C(N)NCCC[C@H](NC(=O)[C@H](Cc1c[nH]c2ccccc12)NC(=O)[C@H](CCC(N)=O)NC(=O)[C@H](Cc1c[nH]c2ccccc12)NC(=O)[C@H](CCCNC(=N)N)NC(=O)[C@@H](N)CCCNC(=N)N)C(N)=O` [RRWQWR] (H-RRWQWR-NH2) had an MBC E. coli 25922 of 203 µM (≈ 200 µg/mL) and an MIC E. coli 25922 of 203 µM (≈ 200 µg/mL). In the data set with S. aureus ATCC 25923, this molecule returned an MBC S. aureus 25923 greater than 203 µM and an MIC S. aureus 25923 greater than 203 µM.
In turn, “CTpH(F)-(AAC-(K)-RRWQWR)4 (rctt) [tetravalent (peptide)4-resorcinarene conjugate with four copies of RRWQWR on CTpH(F)]” yielded an MBC E. coli 25922 against E. coli ATCC 25922 (aliquot of each MIC well on Mueller Hinton Agar, 24 h at 37 °C, in duplicate) of 36 µM. Besides, the MIC E. coli 25922 with E. coli ATCC 25922 (broth microdilution, Mueller Hinton broth, 24 h at 37 °C, absorbance 620 nm, in duplicate, strain susceptible to ciprofloxacin) amounted to 36 µM. The “Hemolytic effect at the MIC values” with erythrocytes was “Neither of the two conjugates exhibited a significant hemolytic effect”.
In the case of (RRWQWR)4-K2-C2, the “Cytotoxicity against HeLa” value with HeLa cell line is on record as “exhibited cytotoxicity”. Also, the “Cytotoxicity against MCF-7” value in the data set with MCF-7 cell line is reported as “exhibited cytotoxicity”.
Take `CC(C)C[C@H](NC(=O)[C@H](CC(C)C)NC(=O)[C@@H](N)CCCNC(=N)N)C(=O)N[C@@H](CCCNC(=N)N)C(N)=O` [RLLR] (H-RLLR-NH2): in the data set on E. coli ATCC 25922 (ATCC 25922, 24 h), the MBC E. coli 25922 is greater than 359 µM and the MIC E. coli 25922 was greater than 359 µM. In the data set with S. aureus ATCC 25923, this molecule had an MBC S. aureus 25923 greater than 359 µM and an MIC S. aureus 25923 greater than 359 µM.
For RLLRRLLR, in data set [1], the “MIC clinical isolate C. albicans 256 HUSI-PUJ” value is given as greater than 183 µM. The “MIC C. albicans strain ATCC SC5314” value with C. albicans SC5314 (S) was greater than 183 µM.
